Results published in patent publication US20230136600A1, “Method and device for screening antigen epitope polypeptide” (priority 2020, published 2023).

Test system: Balb/c mice
Assay: Polypeptide chip-based vaccine immunogenicity scoring system
Format: in vivo
Design: key to A2: whether the 95 percentile of the last sampling is increased compared with the end point: Y = rise; N = no rise
Settings: Embodiment III, polypeptide-KLH; for A1: difference between a highest median and a D 0 median (95 percentile) / A2: whether the 95 percentile of the last sampling is increased compared with the end point: Mix1-10; for Total single peptide: A*3 + B*2 + C*1; for A: 95 percentile grouping number score / B: Mouse performance score: total score = 5; for C1: #A timing-sequence response peptide fragment set / C2: #B vaccine specificity peptide fragment set / C3: Intersection of A and B / C4: Percentage of the intersection in set B / C: Timing-sequence response and specificity score: value of the whole mix
Experimental: Data distribution and characteristics thereof are analyzed based on a) and b), a polypeptide chip-based vaccine immunogenicity scoring system (referring to Table 7) is designed.
10 combinations are evaluated by the polypeptide chip-based vaccine immunogenicity scoring system. An evaluation method is consistent with that in Embodiment II. Evaluation results are show in the table below.
This embodiment is consistent with Embodiment II. Each combination is evaluated by the polypeptide chip-based vaccine immunogenicity scoring system. Evaluation results are show in the table below.

Sequence	B1: D 0-D 14 95 percentile rise in the number of mice	B2: D 0-D 21 95 percentile rise in the number of mice	B3: D 14-D 21 95 percentile rise in the number of mice	B4: D 21-D 28 95 percentile rise in the number of mice	A1: difference between a highest median and a D 0 median (95 percentile)	A2: whether the 95 percentile of the last sampling is increased compared with the end point	Total single peptide	A: 95 percentile grouping number score	B: Mouse performance score	C1: #A timing-sequence response peptide fragment set	C2: #B vaccine specificity peptide fragment set	C3: Intersection of A and B	C4: Percentage of the intersection in set B	C: Timing-sequence response and specificity score
HGKEDLKF (SARS-CoV-2) [SEQ ID NO:23]	3	3	0	1	0.20	N	19.4	5	1.7	1494	190	2	1.053	1
IRGGDGKMKD (SARS-CoV-2) [SEQ ID NO:40]	3	3	2	0	0.11	N	18.3	4.5	1.9	823	398	7	1.759	1
KEIDRLNEV [SEQ ID NO:12]	3	3	1	0	0.10	N	15.9	4	1.7	257	682	3	0.440	0.5
KKPASRELKVTF [SEQ ID NO:24]	3	3	1	2	0.10	Y	18.2	4.5	2.1	145	529	1	0.189	0.5
KLDNYYKKDNSY (SARS-CoV-2) [SEQ ID NO:32]	3	3	1	2	0.12	Y	20.2	5	2.1	1494	190	2	1.053	1
KRISNCVADY [SEQ ID NO:8]	2	3	2	1	0.03	N	7.1	1	1.8	230	251	1	0.398	0.5
KVFRSSVLHSTQ [SEQ ID NO:6]	3	3	0	2	0.09	Y	16.3	4	1.9	1212	389	1	0.257	0.5
LPFNDGVYF (SARS-CoV-2) [SEQ ID NO:14]	3	2	2	3	0.09	Y	17.1	4	2.3	133	431	1	0.232	0.5
